Measurements published in patent US20070026408A1, “Materials and methods for analysis of atp-binding cassette transporter gene expression” (priority 2003, published 2007).
Counter-ions that a name gives are not always drawn.

Assays:
Settings in all cases: HepG2, doxorubicin HCl 25 nM, standard 11
abcD4 = assay: DT1 microarray drug screening, drug-treated HepG2: abcD4; assay type: cell-based, human
Method: (§1) The labelled cDNA target preparation was thawed and the 150 μl added to 850 ul hybridisation buffer (500 mM sodium Phosphate pH 6.0, 1% SDS, 1% BSA, 1 mM EDTA) in a 1.5 ml microtube and heated at 95° C. for 10 min.

abcF3 = assay: DT1 microarray drug screening, drug-treated HepG2: abcF3; assay type: cell-based, human
Method: as §1

abcC13 = assay: DT1 microarray drug screening, drug-treated HepG2: abcC13; assay type: cell-based, human
Method: as §1

abcB1 = assay: DT1 microarray drug screening, drug-treated HepG2: abcB1; assay type: cell-based, human
Method: as §1

abcD2 = assay: DT1 microarray drug screening, drug-treated HepG2: abcD2; assay type: cell-based, human
Method: as §1

abcG2 = assay: DT1 microarray drug screening, drug-treated HepG2: abcG2; assay type: cell-based, human
Method: as §1

abcA7 = assay: DT1 microarray drug screening, drug-treated HepG2: abcA7; assay type: cell-based, human
Method: as §1

abcA10 = assay: DT1 microarray drug screening, drug-treated HepG2: abcA10; assay type: cell-based, human
Method: as §1

abcC5 = assay: DT1 microarray drug screening, drug-treated HepG2: abcC5; assay type: cell-based, human
Method: as §1

abcC1 = assay: DT1 microarray drug screening, drug-treated HepG2: abcC1
abcC4 = assay: DT1 microarray drug screening, drug-treated HepG2: abcC4; assay type: cell-based, human
Method: as §1

abcA12 = assay: DT1 microarray drug screening, drug-treated HepG2: abcA12; assay type: cell-based, human
Method: as §1

abcG8 = assay: DT1 microarray drug screening, drug-treated HepG2: abcG8; assay type: cell-based, human
Method: as §1

abcC2 = assay: DT1 microarray drug screening, drug-treated HepG2: abcC2; assay type: cell-based, human
Method: as §1

abcB2 = assay: DT1 microarray drug screening, drug-treated HepG2: abcB2; assay type: cell-based, human
Method: as §1

abcB10 = assay: DT1 microarray drug screening, drug-treated HepG2: abcB10
abcC7 = assay: DT1 microarray drug screening, drug-treated HepG2: abcC7; assay type: cell-based, human
Method: as §1

abcA4 = assay: DT1 microarray drug screening, drug-treated HepG2: abcA4; assay type: cell-based, human
Method: as §1

abcA2 = assay: DT1 microarray drug screening, drug-treated HepG2: abcA2; assay type: cell-based, human
Method: as §1

abcF1 = assay: DT1 microarray drug screening, drug-treated HepG2: abcF1; assay type: cell-based, human
Method: as §1

abcC8 = assay: DT1 microarray drug screening, drug-treated HepG2: abcC8; assay type: cell-based, human
Method: as §1

abcF2 = assay: DT1 microarray drug screening, drug-treated HepG2: abcF2; assay type: cell-based, human
Method: as §1

abcA5 = assay: DT1 microarray drug screening, drug-treated HepG2: abcA5; assay type: cell-based, human
Method: as §1

abcG4 = assay: DT1 microarray drug screening, drug-treated HepG2: abcG4; assay type: cell-based, human
Method: as §1

COc1cccc2c1C(=O)c1c(O)c3c(c(O)c1C2=O)C[C@@](O)(C(=O)CO)C[C@@H]3O[C@H]1C[C@H](N)[C@H](O)[C@H](C)O1 [dox, doxorubicin HCl]
relative level of abcD4 gene expression (abcD4; 4 h): 3.103
relative level of abcD4 gene expression (abcD4; 8 h): 3.194
relative level of abcF3 gene expression (abcF3; 2 h): 3.921
relative level of abcF3 gene expression (abcF3; 4 h): 2.795
relative level of abcF3 gene expression (abcF3; 8 h): 2.793
relative level of abcC13 gene expression (abcC13; 2 h): 3.203
relative level of abcC13 gene expression (abcC13; 4 h): 2.548
relative level of abcC13 gene expression (abcC13; 8 h): 2.593
relative level of abcB1 gene expression (abcB1; 2 h): 6.735
relative level of abcB1 gene expression (abcB1; 4 h): 3.865
relative level of abcB1 gene expression (abcB1; 8 h): 4.759
relative level of abcD2 gene expression (abcD2; 2 h): 2.503
relative level of abcD2 gene expression (abcD2; 4 h): 2.516
relative level of abcD2 gene expression (abcD2; 8 h): 2.409
relative level of abcG2 gene expression (abcG2; 2 h): 2.989
relative level of abcG2 gene expression (abcG2; 4 h): 2.137
relative level of abcG2 gene expression (abcG2; 8 h): 2.08
relative level of abcA7 gene expression (abcA7; 2 h): 1.842
relative level of abcA7 gene expression (abcA7; 4 h): 0.933
relative level of abcA7 gene expression (abcA7; 8 h): 0.9351
relative level of abcA10 gene expression (abcA10; 2 h): 4.82
relative level of abcA10 gene expression (abcA10; 4 h): 3.419
relative level of abcA10 gene expression (abcA10; 8 h): 3.793
relative level of abcC5 gene expression (abcC5; 2 h): 10.51
relative level of abcC5 gene expression (abcC5; 4 h): 6.29
relative level of abcC5 gene expression (abcC5; 8 h): 6.522
relative level of abcC1 gene expression (abcC1; 2 h): 7.005
relative level of abcC1 gene expression (abcC1; 4 h): 4.767
relative level of abcC1 gene expression (abcC1; 8 h): 5.056
relative level of abcC4 gene expression (abcC4; 2 h): 2.612
relative level of abcC4 gene expression (abcC4; 4 h): 2.09
relative level of abcC4 gene expression (abcC4; 8 h): 2.286
relative level of abcA12 gene expression (abcA12; 2 h): 5.829
relative level of abcA12 gene expression (abcA12; 4 h): 3.419
relative level of abcA12 gene expression (abcA12; 8 h): 4.195
relative level of abcG8 gene expression (abcG8; 2 h): 4.697
relative level of abcG8 gene expression (abcG8; 4 h): 2.811
relative level of abcG8 gene expression (abcG8; 8 h): 2.9413
relative level of abcC2 gene expression (abcC2; 2 h): 0.6141
relative level of abcC2 gene expression (abcC2; 4 h): 0.3603
relative level of abcC2 gene expression (abcC2; 8 h): 0.3548
relative level of abcB2 gene expression (abcB2; 2 h): 5.067
relative level of abcB2 gene expression (abcB2; 4 h): 3.715
relative level of abcB2 gene expression (abcB2; 8 h): 4.008
relative level of abcB10 gene expression (abcB10; 2 h): 2.116
relative level of abcB10 gene expression (abcB10; 4 h): 1.484
relative level of abcB10 gene expression (abcB10; 8 h): 1.542
relative level of abcC7 gene expression (abcC7; 2 h): 7.481
relative level of abcC7 gene expression (abcC7; 4 h): 4.5794
relative level of abcC7 gene expression (abcC7; 8 h): 5.093
relative level of abcA4 gene expression (abcA4; 2 h): 8.765
relative level of abcA4 gene expression (abcA4; 4 h): 4.535
relative level of abcA4 gene expression (abcA4; 8 h): 6.099
relative level of abcA2 gene expression (abcA2; 2 h): 6.224
relative level of abcA2 gene expression (abcA2; 4 h): 2.947
relative level of abcA2 gene expression (abcA2; 8 h): 4.022
relative level of abcF1 gene expression (abcF1; 2 h): 2.485
relative level of abcF1 gene expression (abcF1; 4 h): 2.87
relative level of abcF1 gene expression (abcF1; 8 h): 2.662
relative level of abcC8 gene expression (abcC8; 2 h): 0.3229
relative level of abcC8 gene expression (abcC8; 4 h): 0.2437
relative level of abcC8 gene expression (abcC8; 8 h): 0.2255
relative level of abcF2 gene expression (abcF2; 2 h): 5.979
relative level of abcF2 gene expression (abcF2; 4 h): 4.068
relative level of abcF2 gene expression (abcF2; 8 h): 4.807
relative level of abcA5 gene expression (abcA5; 2 h): 3.302
relative level of abcA5 gene expression (abcA5; 4 h): 2.021
relative level of abcA5 gene expression (abcA5; 8 h): 2.451
relative level of abcG4 gene expression (abcG4; 2 h): 9.59
relative level of abcG4 gene expression (abcG4; 4 h): 5.309
relative level of abcG4 gene expression (abcG4; 8 h): 6.271
